Experimental data published in publication PMC7363588, “Mapping of the FGF14:Nav1.6 complex interface reveals FLPK as a functionally active peptide modulating excitability” (Physiological Reports, 2020).
Where “and” joins values, the source holds several entries; their conditions need not be identical. Identical values can stand only once. Entries after “also recorded” stand apart in the source; their conditions may differ. Marks after values point to notes of the source that are not given here. Peptide text beside a SMILES is read from it.

Target: T1, Nav1.6 in the presence of FGF14 (FGF14-1b-GFP) (Homo sapiens, UniProt Q92915)
T1 construct: expressed in transfected cells
T1 sequence (Q92915 1-252 isoform Q92915-2): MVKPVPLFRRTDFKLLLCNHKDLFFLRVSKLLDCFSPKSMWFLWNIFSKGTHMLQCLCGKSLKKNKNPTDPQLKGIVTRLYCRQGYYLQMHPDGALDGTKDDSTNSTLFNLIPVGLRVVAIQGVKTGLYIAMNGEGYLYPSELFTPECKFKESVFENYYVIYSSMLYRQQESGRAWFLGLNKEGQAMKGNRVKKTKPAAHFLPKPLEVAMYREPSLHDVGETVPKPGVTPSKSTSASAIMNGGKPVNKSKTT
Test: Whole-cell patch-clamp, HEK-Nav1.6 cells expressing FGF14-GFP
Assay type: cell-based
Conditions: 50 μM FLPK
Source text: Plasmids used in this study derived from the following clones: human FGF14‐1b isoform (accession number: NM_175929.2) and human Nav1.6 (accession number: NM_014191.3). The CLuc‐FGF14, CD4‐Nav1.6‐NLuc, constructs and the pcDNA3.1 vector (Invitrogen, Carlsbad, CA) were engineered and characterized as previously described (Goetz et al., 2009; Shavkunov et al., 2012,2013,2015; Ali et al., 2016, 2018; Wadsworth et al., 2019). The plasmid pGL3 expressing full length Firefly (Photinus pyralis) luciferase was a gift from Dr. P. Sarkar (Department of Neurology, UTMB). For protein purification studies, cDNAs encoding FGF14‐1b (accession number NP_787125; aa 64–252) or the C‐terminal tail of Nav1.6 (accession number #NP_001171455; aa 1756–1939) were subcloned into suitable pET bacterial expression vectors (pET28a‐FGF14; pET30a‐Nav1.6) with a 6X His‐tag at the N‐terminal site; these plasmids were a gift of Dr. Moosa Mohammadi (NYU, Langone Medical Center). The mutation coding for FGF14^V160A was generated by site‐directed mutagenesis and PCR using FGF14‐1b as a template described previously (Ali et al., 2016). For electrophysiological studies FGF14‐GFP (human) and FGF14‐ΔNT‐GFP (human) were cloned into the GFP plasmid (pQBI‐fC2; Quantum Biotechnology Inc., Montreal, Canada) as previously described.
HEK293 cells were maintained in DMEM and F‐12 (Invitrogen, Carlsbad, CA), supplemented with 0.05% glucose, 0.5 mM pyruvate, 10% fetal bovine serum, 100 units/ml penicillin, and 100 µg/ml streptomycin (Invitrogen), and incubated at 37 °C with 5% CO2. HEK293 cells stably expressing the human Nav1.6 channel (hereafter referred to as HEK‐Nav1.6 cells) were maintained similarly except for the addition of 500 μg/ml G418 (Invitrogen) to maintain stable Nav1.6 expression. Cells were transfected at 80%–90% confluence with equal amount (1 μg each) of plasmid pairs using Lipofectamine 2000 (Invitrogen) according to manufacturer's instructions. HEK‐Nav1.6 cells were washed and replated at very low density prior to electrophysiological recordings (Ali et al., 2016, 2018; Scala et al., 2018; Wadsworth et al., 2019).
HEK‐Nav1.6 cells transfected with GFP or FGF14‐GFP were plated at low density on glass cover slips for 3–4 hr and subsequently transferred to the recording chamber. Recordings were performed at room temperature (20–22°C) 24 hr posttransfection using a MultiClamp 700B amplifier (Molecular Devices, Sunnyvale, CA). The composition of recording solutions consisted of the following salts; extracellular (mM): 140 NaCl, 3 KCl, 1 MgCl2, 1 CaCl2, 10 HEPES, 10 glucose, pH 7.3; intracellular (mM): 130 CH3O3SCs, 1 EGTA, 10 NaCl, 10 HEPES, pH 7.3. Membrane capacitance and series resistance were estimated by the dial settings on the amplifier and compensated for electronically by 70%–75%. Data were acquired at 20 kHz and filtered at 5 kHz prior to digitization and storage. All experimental parameters were controlled by Clampex 9.2 software (Molecular Devices) and interfaced to the electrophysiological equipment using a Digidata 1,200 analog‐digital interface (Molecular Devices). Voltage‐dependent inward currents for HEK‐Nav1.6 cells were evoked by depolarization to test potentials between −100 mV and +60 mV from a holding potential of −70 mV followed by a voltage prestep pulse of −120 mV (Nav1.6). Steady‐state (fast) inactivation of Nav channels was measured with a paired‐pulse protocol. From the holding potential, cells were stepped to varying test potentials between −120 mV (Nav1.6) and +20 mV (prepulse) prior to a test pulse to −20 mV.
Current densities were obtained by dividing Na^+ current (INa) amplitude by membrane capacitance. Current–voltage relationships were generated by plotting current density as a function of the […]. Conductance (GNa) was calculated by the following equation: GNa=INa/Vm‐Erev where INa ^+ is the current amplitude at voltage Vm, and Erev is the Na^+ reversal potential. […]

## CC(=O)N[C@@H](Cc1ccccc1)C(=O)N[C@@H](CC(C)C)C(=O)N1CCC[C@H]1C(=O)N[C@@H](CCCCN)C(N)=O [FLPK] (Ac-FLPK-NH2)
FGF14-GFP, at −10 mV, mean ± SEM (n = 21), DMSO −16.8 ± 3.3, p < .05 vs FGF14-GFP (DMSO)
  Peak density (I Na): −49.6 ± 7.2 pA/pF and −49.6 ± 7.2 (21) ^c pA/pF
FGF14-GFP, mean ± SEM (n = 11), DMSO 5.7 ± 0.4
  Kact: 5.7 ± 0.5 (11) ^h,i mV
FGF14-GFP, mean ± SEM (n = 11), DMSO −16.6 ± 1.0
  Activation (V1/2): −20.8 ± 1.5 mV and −20.8 ± 1.5 (11) mV
FGF14-GFP, mean ± SEM (n = 11 in Table 3; n = 14 in text), DMSO −54.9 ± 1.1
  Steady-state Inactivation (V1/2): −59.2 ± 2.1 (11) mV
FGF14-GFP, mean ± SEM (n = 14), DMSO 5.9 ± 0.9
  Kinact: 5.9 ± 0.6 (14) mV
FGF14 wild type, hyperpolarizing direction
  shift of V1/2 of activation vs DMSO control: −4 mV
HEK-Nav1.6 FGF14-GFP
  effect on FGF14-dependent phenotypes of Nav1.6 currents: effectively restored I Na to values that were statistically comparable to the GFP + DMSO control; also recorded: inhibited previously reported modulatory effects of FGF14 (1b isoform) on Nav1.6 currents
